Source: patent US5525627A, “Esters of acyl carnitines with long-chain aliphatic alcohols and pharmaceutical compositions containing same having antimycotic activity” (Sigma-Tau Industrie Farmaceutiche Riunite S.p.A., priority 1992, dated 1996)

Assay: Test 1: body and lymphoid organ weight in SRBC immunized mice
Format: in vivo, mice (male B6 D2F1)
Conditions: 100 mg/kg/day per os, day -2 through day +2; x ± S.E.
Protocol: Test 1: Evaluation of the "in vitro-ex vivo" effect of repeated oral administrations of ST 722 on the primary antibody production (Jerne test) in the spleen of SRBC (Sheep Red Blood Cells) immunized mice.
Male B6 D2F1 mice (C. River) aged 8 weeks (6 animals each group) were utilized.
The substance (ST 722) was administered per os at the dose of 100 mg/kg/day from day -2 through day +2 (immunization at day 0). The animals were immunized by intraperitoneal route with a concentration of 1.0×10^8 cells/mouse in 0.2 ml of sterile saline.
Five days later, spleens to be submitted to teasing process were removed from the animals sacrificed by cervical dislocation. After standardization at 1.0×10^7 cells/ml. the splenocytes (0.1 ml) were mixed with warm agar-Hank's (2 ml) and 10% SRBC in PBS (0.2 ml) and seeded in Petri dishes (samples tested in triplicates) and incubated at 37° C. for 60 min.

CCCCCCCCCCCOC(=O)C[C@H](C[N+](C)(C)C)OC(=O)CC(C)C [ST 722, isovaleryl-L-carnitine undecyl ester chloride] gave a Body weight of 25.12 ± 0.77 g, a Spleen weight of 94.33 ± 4.12 mg and a Thymus weight of 59.50 ± 3.62 mg.
